experiment: Human HepG2 cell viability assay in 384 well format; format: toxicity, cell-based; set-up: dose 125 nL, time 70.5 hour; cytotoxicity at 70.5 h: concentration not given beside the values; details: HepG2 cells, read-out: Inhibition

SMILES | cytotoxicity at 70.5 h [%]
O=C1N(c2ccc(Cl)cc2)Cc2n[nH]c(=O)n21 | -2.4
COc1ccc(C(C(=O)O)N2CCN(C3CCCC3)CC2)cc1C (centres undefined) | -1.67
CN1CC2(CCCN(Cc3nnc(-c4cccc(F)c4)o3)C2)OC1=O (centres undefined) | -5.83
COc1ccc2c(c1)nc1n2[C@@H](CNC(=O)c2ccccn2)COC1 | -7.73
CCOCC1CN(Cc2ccc3c(c2)OCO3)Cc2nccn2C1 (centres undefined) | 0.869
NCc1n[nH]c(-c2ccc(Br)cc2)n1 | 2.27
O=C(c1ccco1)N1CCOCC2(C1)CN(c1cccnc1)C(=O)CO2 (centres undefined) | -3.1
O=C1[C@H]2CC[C@H](CN(C3CCOCC3)C2)N1Cc1cscn1 | 23.4
COc1ccc(-c2cnc(N(C)C)nc2C2CNCCO2)cc1 (centres undefined) | -4.32
O=C(C1CC2(CCNCC2)CN1)N1CCN(c2cccc(Cl)c2Cl)CC1 (centres undefined) | -1.58
Cc1ccc(C(=O)NCC(c2cnn(C)c2)N(C)C)c(O)c1 (centres undefined) | 25.6
O=C(O)C1(Cc2ccccc2Cl)CCN(c2ncccc2F)CC1 | -6.72
CCCN1CCC2(CC1)COc1ccccc1S(=O)(=O)N(CC1CC1)C2 | -4.67
Cc1noc(-c2ccc(N3CCCC(C(=O)O)C3)nc2)n1 (centres undefined) | -3.67
CCc1ccc(C(=O)NCc2cccc(S(=O)(=O)NC)c2)o1 | -0.952
CCS(=O)(=O)NCC(Cc1cccc(F)c1)N1CCNC1=O (centres undefined) | 6.34
CSc1ncc(C(=O)N2CCC(O)(CN3CCOCC3)C(C)(C)C2)cn1 (centres undefined) | -0.923
Cc1ccc(N2CCC3(CCN(Cc4nccs4)CC3)CC2)nn1 | -7.07
COCCN(Cc1ccoc1)C(=O)c1cccnc1SC | -0.295
O=C([C@@H]1CC[C@@H]2[C@@H](CCN2Cc2cccc(F)c2)O1)N1CCCCO1 | 5.95
CCCNC(=O)COc1cc(C)c2c(C)nn(-c3ccccc3)c2n1 | -4.53
c1ccc(CO[C@@H]2CN(Cc3cccnc3)[C@@H]3COC[C@@H]32)nc1 | 5.82
CN(C)CCN1CC2(CCC1=O)CCN(C(=O)c1ccn(C)n1)CC2 | -2.52

SMILES | cytotoxicity at 70.5 h [%]
O=C(NCc1ccccn1)c1cc2n(n1)CCNC2 | -3.91
CCC(C)NC(=O)c1ccc(NC(=O)CCCn2cncn2)c(C)c1 (centres undefined) | 14.8
CCNC(=O)NC(=O)CNC(C)(C)c1ccc2c(c1)OCCO2 | -5.69
O=C(c1csc(-c2ccco2)n1)N(CC1CCOC1)C1CC1 (centres undefined) | 4.66
CC(O)CN1CCC(CN(C)CCC(=O)NC2CCCCC2)CC1 (centres undefined) | 14.6
NC(=O)CN1CCC(NC2CCCCc3ccccc32)CC1 (centres undefined) | 5.24
CC(=O)N[C@@H]1CN(Cc2nnc(-c3ccccc3)o2)C[C@H]1C(C)C | -16.1
O=C(NCC1CCOC1)c1cc(-c2ccccc2Cl)[nH]n1 (centres undefined) | -12.9
c1ncn(Cc2cn3c(n2)CN(CC2CCCC2)CC3)n1 | 1.84
Cc1ncsc1C(=O)N1CCC(Nc2cccnn2)CC1 | -7.04
CCOCC1CN(C(=O)N(C)C)Cc2nnn(CC3CC3)c21 (centres undefined) | 4.98
CC(C)OCCOCc1cccc(NC(=O)NCc2cnn(C)c2)c1 | -0.106
O=S(=O)(Nc1ccon1)c1cc(Cl)cc2c1OCC2 | 1.46
CC(Nc1ccc(Br)cc1)c1nc(C2CC2)no1 (centres undefined) | -1.22
Cc1cc(CNc2ccnn2C)ccc1-n1cncn1 | -1.29
O=C(CC1CC1)N[C@@H]1CN(Cc2ccoc2)C[C@@H]2CCCO[C@@H]21 | 14
Cc1ccccc1CNC(C)c1ccc(OCC(=O)NC2CC2)cc1 (centres undefined) | 13.8
COc1cc(CC(=O)Nc2cccc(C(=O)N(C)C)n2)ccc1C | 46.5
Fc1cccc(C(NCc2ncc[nH]2)c2ccccc2)c1 (centres undefined) | -3.27
CC1(C)CN(C(=O)c2cnc(-c3ccccn3)nc2)CC[C@]1(C)O | 0.152
Cn1cc(C2CCCN2CC(=O)N(CCC#N)Cc2ccco2)cn1 (centres undefined) | 2
CC(C)Cc1nc(CNCc2cccc(N3CCCC3=O)c2)no1 | -20.4
CC(C)n1cc(C(=O)NCCc2cn3ccsc3n2)cn1 | 13.8

SMILES | cytotoxicity at 70.5 h [%]
COc1ccc(F)cc1CN1CCN(Cc2nccn2C)C(C)C1 (centres undefined) | 9.37
O=C(CN1CC(n2cccn2)C1)NCCc1ccc(F)cc1 | -1.33
Cc1nc(C2(O)CCCNCC2)sc1CCOc1ccc(F)c(F)c1 (centres undefined) | -4.26
CN(C)Cc1cc(=O)n2c(n1)CN(CC1CCOCC1)CCC2 | -10.5
CS(=O)(=O)c1snnc1C1CCN(Cc2cccc(O)c2)CC1 | -7.7
OCCNc1nccc(-c2c[nH]nc2-c2ccco2)n1 | 4.01
COCC(=O)N1CCO[C@]2(CCC[C@H]2COC)C1 | 9.79
Cn1cc(C(=O)N2CCN(Cc3ccsc3)CC2)cn1 | 14.2
O=C(NCc1ccc(F)cc1)NCC(O)(c1cccs1)C1CC1 (centres undefined) | -8.72
COc1ccc(CN2CCC(O)(CN3CCCCC3)C2)c(C)c1 (centres undefined) | -1.76
CCc1n[nH]c(C2CN(Cc3ncc(CC)o3)CCO2)n1 (centres undefined) | 51.9
O=C(c1ccc(N2CCCC2)nc1)N1CCCC(n2cncn2)C1 (centres undefined) | -9
CC(C)C(C)NC(=O)Nc1ccc(CC(N)=O)cc1 (centres undefined) | -3.59
COc1cccc2c1N(CC(=O)Nc1ccc(Br)cn1)CCC2 | -3.62
CN(Cc1ccsc1)C(=O)CN1CCOC(Cn2cccn2)C1 (centres undefined) | 29
Cc1cccc(COCC2c3nnn(C)c3CCN2Cc2ccoc2)n1 (centres undefined) | -5.52
Cc1ccc(CN2CCO[C@H]3[C@H](OCc4cccnc4)CC[C@@H]32)o1 | 36.8
Cn1cc(C2=CCN(CCC(=O)NCc3ccc(Cl)cc3)CC2)cn1 | -2.89
CCOCCC(=O)NCc1ccnc(NC2CC2)c1 | -3.85
Cc1cncc(C2CCCN(CC3CCC3)C2)n1 (centres undefined) | -4.65
Cc1nc(C2CCCN2Cc2nccn2CC(F)(F)F)no1 (centres undefined) | -2.36
CCOc1ccc(C(=O)NCCCNc2ncccn2)cc1 | 17.7
CC(=O)c1c(C)cc(C)c(Cn2ccnc2S(C)(=O)=O)c1C | 6.42

SMILES | cytotoxicity at 70.5 h [%]
Cc1cc(C)n(CC2CCCCN2C(=O)c2ccc(C(N)=O)cc2)n1 (centres undefined) | -12
CCc1nc(C2CCCN(C(=O)C(C)(C)NS(C)(=O)=O)C2)no1 (centres undefined) | 0.741
CCN1C[C@@H]2[C@@H](OC)CCN(S(=O)(=O)c3ccccc3)[C@@H]2C1 | 3.99
CC(C)=CCN1CCN(Cc2cccc(C)n2)CC1CCO (centres undefined) | 6.26
CCCN1CCCn2c(nc(CNC(=O)c3ccsc3)cc2=O)C1 | -3.68
CCC(C)Oc1ccc(CNCCNS(C)(=O)=O)cc1Cl (centres undefined) | -0.417
CCOc1c(Br)cc(CNC(C)c2nnc3n2CCC3)cc1OC (centres undefined) | -4.89
Cc1noc(C)c1CN1C[C@@H]2COC[C@@H](CC(=O)N3CCCO3)[C@@H]2C1 | -6.49
O=C(CN1CCCC1=O)N1CCC(O)(Cn2ccc3ccncc32)CC1 | -5.71
CCN1CCN(c2ccc(NC(C)c3nc(C(C)C)no3)c(C)c2)CC1 (centres undefined) | -12.5
Cc1nnsc1C(=O)N1CCCC(n2nnc3cc(F)ccc32)C1 (centres undefined) | -5.58
Cc1nc(CN2CCc3ncnc(-c4ccccc4)c3CC2)cs1 | -9.56
Cc1cnn(CC2CCCCN2Cc2nc(-c3ccoc3)no2)c1 (centres undefined) | -6.01
CN1CCOC(C)(C(=O)N2CCSCC2)C1 (centres undefined) | -4.76
CN1CCN(Cc2c(-c3ccco3)[nH]c3ncccc23)CC1 | -6.17
O=S(=O)(c1ccccc1)N1CCC2(CCCN2Cc2ccccc2Cl)C1 (centres undefined) | 22.5
Cc1cccc(OC2CCN(c3nc(N)nc4[nH]cnc34)CC2)c1 | -1.39
O=C(NCCc1c[nH]cn1)C1CCCN(C2CCOCC2)C1 (centres undefined) | -5.69
N#CCc1ccc(NC(=O)N[C@H](CO)Cc2ccc(O)cc2)cc1 | -9.07
COC(=O)C1CN(CC(=O)Nc2ccccc2Cl)c2ccccc21 (centres undefined) | -5.02
COc1ccc(C(=O)NCC(=O)N(Cc2ccsc2)C2CC2)cc1OC | 30.2
CNC(=O)C(C)CN(C)C(=O)Nc1cc(-n2cccc2)ccc1F (centres undefined) | -3.24
Cc1nc(NCC2CC2)nc2c1COCC21CCN(C(=O)C(C)(C)C)C1 (centres undefined) | -18.4

SMILES | cytotoxicity at 70.5 h [%]
Cc1nc(C)n(CC2CCCN2Cc2nc(C3CC3)no2)n1 (centres undefined) | -5.43
Cc1ccc(CCN[C@@H]2c3ccccc3C3(CCNCC3)[C@H]2O)s1 | -2.07
O=C(O)CN1CCC(C(F)(F)F)CC1 | -2.76
CCn1nc(C(=O)N2CCCC2c2noc(C)n2)ccc1=O (centres undefined) | -3.84
COCCO[C@H]1CCN(Cc2cnn(C)c2)[C@H]1Cc1cccnc1 | -3.42
Cc1cc(C)c(C(=O)N2CCc3c(ncn3CCc3ccccc3)C2)[nH]1 | -8.62
COc1cc(C)ccc1OCCC(=O)N1CCC(C(N)=O)C1 (centres undefined) | -10.8
CC(C)CN1CC(C(=O)NCCc2ccc(OC(F)F)cc2)CC1=O (centres undefined) | 9.73
CNC(=O)CN1CCCC12CCN(C(=O)c1ccsc1)CC2 | -6.13
O=C([C@H]1COC[C@H]2CN(Cc3ccco3)C[C@H]21)N1CCCO1 | 5.11
Cc1nc(CC(=O)NS(=O)(=O)c2cccc3cnccc23)cs1 | -110
c1cnc(N2CCC(OCCN3CCCCC3)C2)nc1 (centres undefined) | -10.2
COCc1nc(C(=O)NS(=O)(=O)c2cc(Br)ccc2C)cs1 | 1.93
Cc1nc(CN2CCN(Cc3cc4n(n3)CCNC4)CC2)cs1 | 22.5
CN(C)Cc1cc(=O)n2c(n1)CN(Cc1ccco1)CCC2 | -4.34
Cc1ccc2c(n1)N(CC1CC1)CCN(Cc1cnn(C)c1)C2 | 30.4
Cc1ccc(C)c(C(C(=O)O)N2CCCN(Cc3ccccn3)CC2)c1 (centres undefined) | -8.23
Cc1occc1C(=O)NCc1ccc(N2CCCC(C(N)=O)C2)cc1 (centres undefined) | -6.48
Cc1ccoc1C(=O)N1CCCc2c(c(=O)n(C)n2C)C1 | 11.9
COc1cccc(C2(CNC(C)c3nnc(C)o3)CCCC2)c1 (centres undefined) | -13.9
COc1ccc(N2CCC(N3CCOC(C(F)(F)F)C3)CC2)cc1 (centres undefined) | -7.02
NC(=O)Cn1c(CO)cnc1SCc1ccccc1Cl | 18.9

— ChEMBL document CHEMBL3507680, “University of Dundee, Gates Library screen for HepG2 cell viability”
